Assay results published in a compilation of properties of binary mixtures (doi:10.1016/j.fluid.2015.05.023).

Test: xn = mol fraction of the nth substance listed
Conditions: 100 kPa

CCCCCCCCn1cc[n+](CCCCCCCC)c1.O=S(=O)([N-]S(=O)(=O)C(F)(F)F)C(F)(F)F + O
x2 = 0.1246
Conditions	viscosity [mPa·s]
298.15 K	120.2
313.15 K	58.75
318.15 K	47.76
323.15 K	39.33
328.15 K	32.75
333.15 K	27.56
338.15 K	23.43
343.15 K	20.09
348.15 K	17.37
353.15 K	15.13
363.15 K	11.72

CCCC[n+]1ccn(C)c1.O=S(=O)([N-]S(=O)(=O)C(F)(F)F)C(F)(F)F + O
x2 = 0.257
Conditions	viscosity [mPa·s]
298.15 K	31.31
303.15 K	25.93
308.15 K	21.78
313.15 K	18.52
318.15 K	15.92
323.15 K	13.82
328.15 K	12.1
338.15 K	9.475
348.15 K	7.629
358.15 K	6.275
363.15 K	5.73

CCCn1cc[n+](C)c1.O=S(=O)([N-]S(=O)(=O)C(F)(F)F)C(F)(F)F + O
x2 = 0.272
Conditions	viscosity [mPa·s]
298.15 K	26.63
303.15 K	22.24
313.15 K	16.12
328.15 K	10.73
333.15 K	9.52
338.15 K	8.5
348.15 K	6.9
358.15 K	5.69
363.15 K	5.22

CCCCCCCn1cc[n+](CCCCCCC)c1.O=S(=O)([N-]S(=O)(=O)C(F)(F)F)C(F)(F)F + O
x2 = 0.1365
Conditions	viscosity [mPa·s]
298.15 K	100.8
303.15 K	78.57
308.15 K	62.48
313.15 K	50.44
318.15 K	41.29
323.15 K	34.22
328.15 K	28.65
333.15 K	24.25
338.15 K	20.67
343.15 K	17.8
348.15 K	15.46
353.15 K	13.51
358.15 K	11.9
363.15 K	10.53

CCCCCCn1cc[n+](CCCCCC)c1.O=S(=O)([N-]S(=O)(=O)C(F)(F)F)C(F)(F)F + O
x2 = 0.1489
Conditions	viscosity [mPa·s]
298.15 K	83.49
308.15 K	52.59
313.15 K	42.72
318.15 K	35.17
323.15 K	29.31
333.15 K	21.02
338.15 K	18.06
343.15 K	15.65
348.15 K	13.67
353.15 K	12
358.15 K	10.63
363.15 K	9.466

CCCCCn1cc[n+](C)c1.O=S(=O)([N-]S(=O)(=O)C(F)(F)F)C(F)(F)F + O
x2 = 0.2211
Conditions	viscosity [mPa·s]
298.15 K	38.65
303.15 K	31.67
308.15 K	26.32
323.15 K	16.22
328.15 K	14.08
333.15 K	12.32
338.15 K	10.87
343.15 K	9.65
348.15 K	8.63
353.15 K	7.75
358.15 K	7
363.15 K	6.36

CCn1cc[n+](CC)c1.O=S(=O)([N-]S(=O)(=O)C(F)(F)F)C(F)(F)F + O
x2 = 0.2772
Conditions	viscosity [mPa·s]
298.15 K	19.32
303.15 K	16.55
308.15 K	14.34
313.15 K	12.53
323.15 K	9.8
328.15 K	8.75
333.15 K	7.87
338.15 K	7.11
343.15 K	6.46
348.15 K	5.89
353.15 K	5.39
363.15 K	4.57
